Assays:
[1] = Stability of CoQ10 in a 50° C. oven open to the air (HPLC); type: physicochemical; details: for Loss of CoQ10 after 36 days at 50° C. (equivalent to 3 months at room temperature) / Loss of CoQ10 after 72 days at 50° C. (equivalent to 6 months at room temperature): open to the air
Protocol: 100 mg of USP CoQ10 (Sigma) and CoQ10 contained in a glycoprotein matrix from Example 1 was placed in a 10 ml beaker in a 50° C. oven open to the air. The amount of CoQ10 remaining was analyzed by HPLC using a C18 column (Perkin Elmer Pecosil 5, 15 cm) and a solvent of 75% methanol and 25% isopropanol.

[2] = test system: lower density lipoproteins (LDL+VLDL); assay: Inhibition of cupric ion-induced oxidation of lower density lipoproteins (antioxidant activity); type: biochemical, humans; details: inhibition of lipid peroxide formation in LDL+VLDL, 25 μM cupric ion, 37° C., 6 hours; matrix sample based on CoQ10 conc.
Protocol: A weighed portion (50-500 mg) of solid sample of CoQ10 contained in a glycoprotein matrix was mixed with 5 ml of 50% methanol/water and heated at 90° C. in a plastic screw-capped tube with intermittent shaking for 2 hours to determine the unconjugated (“free”) phenols present. Another weighed portion of the same sample was heated with 5 ml of 1.2 M HCl in 50% aqueous methanol for 2 hours at 90° C. to measure the unconjugated plus conjugated (“total”) phenols. The extracts, each done in duplicate, were then filtered with a 0.45 μm filter and stored at −20° C. until assay. Values for free polyphenols and total phenols for commercial CoQ10 are known.
The phenol content in the extracts was measured by the Folin-Cocialteu reagent (Sigma Chemical Co., St. Louis, Mo.) using catechin (Sigma) as a standard. A blank, catechin standards and samples were added to the Folin reagent in a cuvette and after 20 minutes the color was measured at 720 nm vs. a blank. […]
The amount of lipid peroxides was measured using thiobarbituric acid and fluorometry. The % of inhibition of lipid peroxide formation was calculated vs. a control with no added antioxidants. The IC50 value in μM units was then calculated.
The amount of CoQ10 in the composition of the invention was determined by HPLC using UV detector, C18 column (Perkin Elmer Pecosil 5, 15 cm) and a solvent of 75% methanol and 25% isopropanol. […]

Structure (SMILES): COC1=C(OC)C(=O)C(C/C=C(\C)CC/C=C(\C)CC/C=C(\C)CC/C=C(\C)CC/C=C(\C)CC/C=C(\C)CC/C=C(\C)CC/C=C(\C)CC/C=C(\C)CCC=C(C)C)=C(C)C1=O [CoQ10 (USP), Coenzyme Q10]
- Loss of CoQ10 at 0 days ([1]; 0 days): 0%
- Loss of CoQ10 after 36 days at 50° C. (equivalent to 3 months at room temperature) ([1]; listed as USP CoQ10): 6.8%
- Loss of CoQ10 after 36 days at 50° C. (equivalent to 3 months at room temperature) ([1]; listed as commercial CoQ10): 6.8%
- Loss of CoQ10 after 72 days at 50° C. (equivalent to 6 months at room temperature) ([1]; listed as USP CoQ10): 16.8%
- Loss of CoQ10 after 72 days at 50° C. (equivalent to 6 months at room temperature) ([1]; listed as commercial sample): 16.8%
- IC50 [2]: 1330 nM

Reference: patent US20060263344A1, “Novel probiotic compositions and methods of using the same” (priority 2003, published 2006)
